The source of these data is patent US8785488B2 (Exelixis Patent Company LLC, priority 2009, dated 2014).

A value given as a limit tells only on which side of the number the result lay.

In one test the target is T1, h-TGR5 (Homo sapiens, UniProt Q8TDU6).
T1 construct: expressed in transfected cells
T1 sequence (Q8TDU6 1-330): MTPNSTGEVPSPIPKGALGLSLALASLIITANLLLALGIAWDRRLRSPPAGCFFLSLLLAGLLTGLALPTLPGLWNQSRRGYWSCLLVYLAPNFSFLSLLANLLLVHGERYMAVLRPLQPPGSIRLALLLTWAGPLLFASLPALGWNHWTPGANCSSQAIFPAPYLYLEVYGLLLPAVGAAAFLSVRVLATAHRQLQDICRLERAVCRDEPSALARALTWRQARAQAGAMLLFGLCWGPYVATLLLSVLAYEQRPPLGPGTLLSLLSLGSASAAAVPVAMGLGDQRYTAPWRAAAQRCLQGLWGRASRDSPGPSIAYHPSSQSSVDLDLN
Briefly: TGR5 cAMP Assay using Cisbio cAMP Dynamic2 htrf kit (hTGR5CRE-luc HEK 293 cells). It counts as cell-based. Particulars: h-TGR5 cAMP EC50, Table 1; read-out: cAMP (EC50). In a few lines: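 […], 4000 hTGR5CRE-luc HEK 293 cells per well, with 0.5 mM IBMX and d2-cAMP, were incubated 30 min at room temperature with compounds in 8-point half-log series, in quadruplicate.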

Another test concerns the target T2, human TGR5 (h-TGR5) (Homo sapiens, UniProt Q8TDU6).
T2 construct: expressed in transfected cells
T2 sequence (Q8TDU6 1-330): T1 sequence (Q8TDU6 1-330)
In words: TGR5/CRE-Luciferiase Assay (HEK 293 hTGR5/CRE-Luc cells). The class given is cell-based. To be noted: h-TGR5 CRE-Luc EC50, Table 1; read-out: CRE-Luc (EC50). Put shortly: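 HEK293 cells stably carrying hTGR5 and a CRE-luciferase reporter were exposed to serially diluted compounds (diluted in DMEM with 5% DMSO) for 6 h. Cells were then lysed in luciferase buffer, luminescence was read, and EC50 values were derived from dose-response curves.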

As for `COc1ccc(C(C)(C)c2cnc(SCc3ccc(F)cc3Cl)n2-c2ccc(F)cc2)cc1OC` [5-{1-[3,4-bis(methyloxy)phenyl]-1-methylethyl}-2-{[(2-chloro-4-fluorophenyl)methyl]thio}-1-(4-fluorophenyl)-1H-imidazole], the EC50 at h-TGR5 was 100 to 1000 nM; at human TGR5 (h-TGR5) it was under 100 nM.
On to `CC(C)(c1ccc(S(N)(=O)=O)c(Cl)c1)c1cnc(SCc2c(F)cc(C(=O)O)cc2F)n1-c1ccc(F)cn1` [4-({[5-{1-[4-(aminosulfonyl)-3-chlorophenyl]-1-methylethyl}-1-(5-fluoropyridin-2-yl)-1H-imidazol-2-yl]thio}methyl)-3,5-difluorobenzoic acid], for which the EC50 at h-TGR5 and at human TGR5 (h-TGR5) was 100 to 1000 nM in each case.
Take `CC(C)(c1ccc(S(N)(=O)=O)c(Cl)c1)c1cnc(SCc2c(F)cc(C(=O)O)cc2Cl)n1-c1ccc(F)cc1` [4-({[5-{1-[4-(aminosulfonyl)-3-chlorophenyl]-1-methylethyl}-1-(4-fluorophenyl)-1H-imidazol-2-yl]thio}methyl)-3-chloro-5-fluorobenzoic acid]: the concentration giving a half-maximal response (EC50) at h-TGR5 and on human TGR5 (h-TGR5) was under 100 nM throughout.
For the compound `COc1cc(C(C)(C)c2cnc(SCc3ccc(S(=O)(=O)NC(=O)NN4CCCC4)cc3Cl)n2-c2cc(C)c(F)cn2)ccc1Cl` [3-chloro-4-({[5-{1-[4-chloro-3-(methyloxy)phenyl]-1-methylethyl}-1-(5-fluoro-4-methylpyridin-2-yl)-1H-imidazol-2-yl]thio}methyl)-N-[(pyrrolidin-1-ylamino)carbonyl]benzenesulfonamide], the figures for the EC50 at h-TGR5 and at human TGR5 (h-TGR5) were 1000 to 10000 nM and 100 to 1000 nM, respectively.
Take `COc1ccc(C(C)(C)c2cnc(SCc3c(F)cccc3C(F)(F)F)n2-c2ccc(F)cc2)cc1OC` [5-{1-[3,4-bis(methyloxy)phenyl]-1-methylethyl}-1-(4-fluorophenyl)-2-({[2-fluoro-6-(trifluoromethyl)phenyl]methyl}thio)-1H-imidazole]: the EC50 at h-TGR5 and at human TGR5 (h-TGR5) was under 100 nM throughout.
As for `COc1cc(C(C)(C)c2cnc(SCc3ccc(S(=O)(=O)NC(=O)NC4CC4)cc3Cl)n2-c2ccc(F)cc2)ccc1Cl` [3-chloro-4-({[5-{1-[4-chloro-3-(methyloxy)phenyl]-1-methylethyl}-1-(4-fluorophenyl)-1H-imidazol-2-yl]thio}methyl)-N-[(cyclopropylamino)carbonyl] benzenesulfonamide], the EC50 on h-TGR5 and on human TGR5 (h-TGR5) was under 100 nM throughout.
As to `COc1ccc(C(C)(C)c2cnc(CNc3c(F)cccc3Cl)n2-c2ccc(F)cc2)cc1OC` [N-{[5-{1-[3,4-bis(methyloxy)phenyl]-1-methylethyl}-1-(4-fluorophenyl)-1H-imidazol-2-yl]methyl}-2-chloro-6-fluoroaniline], the EC50 on h-TGR5 is 100 to 1000 nM; at human TGR5 (h-TGR5), under 100 nM.
The matching figures for `COc1cc(C(C)(C)c2cnc(SCc3c(F)cc(CCCNC(=N)N)cc3F)n2-c2ccc(F)cc2)ccc1Cl` [1-{3-[4-({[5-{1-[4-chloro-3-(methyloxy)phenyl]-1-methylethyl}-1-(4-fluorophenyl)-1H-imidazol-2-yl]thio}methyl)-3,5-difluorophenyl]propyl}guanidine]: under 100 nM and under 100 nM.
Regarding `COc1cc(C(C)(C)c2cnc(SCc3ccc(S(=O)(=O)NC(=O)NC4CCCC4)cc3Cl)n2-c2ccc(F)cc2)ccc1Cl` [3-chloro-4-({[5-{1-[4-chloro-3-(methyloxy)phenyl]-1-methylethyl}-1-(4-fluorophenyl)-1H-imidazol-2-yl]thio}methyl)-N-[(cyclopentylamino)carbonyl] benzenesulfonamide], the EC50 on h-TGR5 and at human TGR5 (h-TGR5) was under 100 nM throughout.
As for `COc1ccc(C(C)(C)c2cnc(SCc3ccc(F)c(C(N)=O)c3)n2-c2ccc(F)cc2)cc1OC` [5-({[5-{1-[3,4-bis(methyloxy)phenyl]-1-methylethyl}-1-(4-fluorophenyl)-1H-imidazol-2-yl]thio}methyl)-2-fluorobenzamide], the EC50 on h-TGR5 and on human TGR5 (h-TGR5) was under 100 nM in each case.
